According to patent US9181234B2, “Antibacterial compounds” (priority 2010, dated 2015):
In brackets after ≈: the same amount, converted by molar mass. Read-outs that look alike come from different tables or passages of the source.

What was measured:
[1] = test system: Haemophilus influenzae (Isolate ID ATCC 49247); assay: Antibacterial activity, MIC, H. influenzae; type: cell-based; conditions: Gram negative strain, broth microdilution or agar dilution; for MIC: Haemophilus influenzae, ATCC49247
In short: (§1)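 Per CLSI standard M7-A7, minimum inhibitory concentrations were measured by agar dilution or by broth microdilution.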

physchem = conditions: for solubility at 24 h: kinetic from dmso stock
In short: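 DMSO doubling dilutions were diluted twenty-fold into 100 mM citrate (pH 4), PBS (pH 7.4) or carbonate-bicarbonate (pH 9). After 24 h equilibration at room temperature, absorbance was read at 620 nm. The reported value is the highest concentration without measurable precipitate.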

[2] = test system: Enterococcus faecalis (Isolate ID ATCC 29212); assay: Antibacterial activity, MIC, E. faecalis; type: cell-based; conditions: Gram positive strain, broth microdilution or agar dilution; for MIC: Enterococcus faecalis, ATCC29212
In short: as §1

[3] = test system: Staphylococcus aureus (Isolate ID ATCC 29213); assay: Antibacterial activity, MIC, S. aureus; type: cell-based; conditions: broth microdilution or agar dilution; for MIC: Staphylococcus aureus, ATCC29213, Gram positive strain
In short: as §1

[4] = test system: Streptococcus pyogenes (Isolate ID ATCC 51339); assay: Antibacterial activity, MIC, S. pyogenes; type: cell-based; conditions: broth microdilution or agar dilution; for MIC: Streptococcus pyogenes, ATCC51339, Gram positive strain
In short: as §1

[5] = Pharmacokinetic assay, IV and oral PK profile, rat; type: in vivo; conditions: for bioavailability: read-out: F (%) bioavailability
Protocol: Pharmacokinetic Assays: Determination of PK Profile
The pharmacokinetic profiles of compounds were determined by measuring the compound concentration in plasma by LC/MS/MS following a single intravenous or peroral administration of the compounds at a dose of 3 mg/kg. The concentrations described are the mean plasma concentrations at each time point from three animals. Intravenous dose formulation was administered as a single bolus dose through the tail vein. Oral dose formulation was administered to animals by an oral gavage needle. In both cases the dose volume was 5.0 mL/kg. Blood was collected from rats using a jugular vein catheter and from anesthetized mice through a capillary guided into the retro-orbital plexus. The collected blood was centrifuged to obtain plasma and the compounds extracted into methanol prior to determining the compound concentration by LC/MS/MS. The results for selected compounds of the invention are shown in FIGS. 2 to 8 where the X axis denotes time (hours) and the Y axis denotes plasma concentration (ng/mL). The Cmaxoral (μg/mL), AUCiv (μg·hr/mL), AUCoral (μg.hr/mL) and F(%) values are provided in the following table where Cmaxoral is the maximum oral concentration, AUC is area under the curve for intraveneous (IV) and oral and F (%) represents compound bioavailability as calculated by [AUCoral/AUCiv]×100%.

[6] = pH 7.4, aqueous buffer, Max Solubility
[7] = pH 7.4, aqueous buffer, Solubility (pH 7.4)
[8] = pH 7.4, aqueous buffer, Solubility Range
[9] = pH 7.4, aqueous buffer, Solubility Range (maximum solubility)
[10] = po, single peroral dose 3 mg/kg, plasma, read-out: AUCoral
[11] = single peroral dose 3 mg/kg, plasma
[12] = plasma, po, [AUCoral/AUCiv]×100%, 3 mg/kg
[13] = single intravenous dose 3 mg/kg, plasma, read-out: AUCiv

SMILES | MIC [1] | solubility at 24 h (physchem; [7]) | solubility at 24 h (physchem; [8]) | MIC [2] | MIC [3] | MIC [4] | other results
CCNC(=O)Nc1nc2cc(-c3cnc(N4CCC(C)(C(=O)O)CC4)nc3)cc(-c3ccccn3)c2s1 [Compound 1, 1-[5-[2-(ethylcarbamoylamino)-7-(2-pyridyl)-1,3-benzothiazol-5-yl]pyrimidin-2-yl]-4-methyl-piperidine-4-carboxylic acid] | 1 to 16 µg/mL (≈ 1.93 to 30.9 µM) | ≥ 800 µg/mL | > 800 µg/mL | ≤ 0.25 µg/mL | ≤ 0.25 µg/mL | ≤ 0.25 µg/mL | solubility at 24 h (physchem; [6]): ≥ 800 µg/mL; solubility at 24 h (physchem; [9]): > 800 µg/mL; F (%) bioavailability ([5]; [AUCoral/AUCiv]×100%, 3 mg/kg): 48%; AUC [5, 10]: 8300 ng·h/mL; AUCiv ([5]; single intravenous dose 3 mg/kg, plasma): 17400 ng·h/mL; Cmaxoral [5, 11]: 1800 ng/mL
CCNC(=O)Nc1nc2cc(-c3cnc(N4CCC(C)(C(=O)O)CC4)nc3)cc(-c3cscn3)c2s1 [Compound 21] | 1 to 16 µg/mL (≈ 1.91 to 30.6 µM) | ≥ 800 µg/mL | > 800 µg/mL | ≤ 0.25 µg/mL | ≤ 0.25 µg/mL | 0.25 to 1 µg/mL (≈ 0.477 to 1.91 µM) | bioavailability [5, 12]: 14.3%; AUC [5, 10]: 1000 ng·h/mL; AUC [5, 13]: 7100 ng·h/mL; Cmaxoral [5, 11]: 400 ng/mL
CCNC(=O)Nc1nc2cc(-c3ccc(N4CCC(CC)(C(=O)O)CC4)nc3)cc(-c3ccccn3)c2s1 [Compound 103] | 1 to 16 µg/mL (≈ 1.88 to 30.2 µM) | 400 µg/mL (≈ 754 µM) | 400 to 800 µg/mL (≈ 754 to 1510 µM) | ≤ 0.25 µg/mL | ≤ 0.25 µg/mL | ≤ 0.25 µg/mL | solubility at 24 h (physchem; pH 9, aqueous buffer, Max Solubility): ≥ 800 µg/mL; solubility at 24 h (physchem; pH 9, aqueous buffer, Solubility Range (maximum solubility)): > 800 µg/mL; bioavailability [5, 12]: 76.5%; AUC [5, 10]: 22200 ng·h/mL; AUC [5, 13]: 29000 ng·h/mL; Cmaxoral [5, 11]: 5700 ng/mL
CCNC(=O)Nc1nc2cc(-c3cnc(N4CCC(C)(C(=O)OC)CC4)nc3)cc(-c3ccccn3)c2s1 [Compound 169] | 1 to 16 µg/mL (≈ 1.88 to 30.1 µM) | 6.25 µg/mL (≈ 11.8 µM) | < 12.5 µg/mL | 0.25 to 1 µg/mL (≈ 0.47 to 1.88 µM) | 1 to 16 µg/mL (≈ 1.88 to 30.1 µM) | ≤ 0.25 µg/mL | –
CCNC(=O)Nc1nc2cc(-c3cnc(N4CCC(=O)C(C)(C(=O)OC)C4)nc3)cc(-c3ccccn3)c2s1 (stereo not drawn) [Compound 170] | > 16 µg/mL | 6.25 µg/mL (≈ 11.5 µM) | < 12.5 µg/mL | ≤ 0.25 µg/mL | 0.25 to 1 µg/mL (≈ 0.458 to 1.83 µM) | 0.25 to 1 µg/mL (≈ 0.458 to 1.83 µM) | –
CCNC(=O)Nc1nc2cc(-c3cnc(N4CCC(C)(C(=O)OCC)CC4)nc3)cc(-c3ccccn3)c2s1 [Compound 171] | 1 to 16 µg/mL (≈ 1.83 to 29.3 µM) | 3.12 µg/mL (≈ 5.73 µM) | < 12.5 µg/mL | 0.25 to 1 µg/mL (≈ 0.458 to 1.83 µM) | > 16 µg/mL | ≤ 0.25 µg/mL | –
CCNC(=O)Nc1nc2cc(-c3cnc(N4CCC(O)C(C)(C(=O)OC)C4)nc3)cc(-c3ccccn3)c2s1 (stereo not drawn) [Compound 172] | 1 to 16 µg/mL (≈ 1.83 to 29.2 µM) | 12.5 µg/mL (≈ 22.8 µM) | 12.5 to 400 µg/mL (≈ 22.8 to 730 µM) | ≤ 0.25 µg/mL | 1 to 16 µg/mL (≈ 1.83 to 29.2 µM) | ≤ 0.25 µg/mL | –
CCNC(=O)Nc1nc2cc(-c3cnc(N4CCC(O)(C(=O)OC)CC4)nc3)cc(-c3ccccn3)c2s1 [Compound 173] | 1 to 16 µg/mL (≈ 1.87 to 30 µM) | 50 µg/mL (≈ 93.7 µM) | 12.5 to 400 µg/mL (≈ 23.4 to 750 µM) | ≤ 0.25 µg/mL | 0.25 to 1 µg/mL (≈ 0.469 to 1.87 µM) | ≤ 0.25 µg/mL | –
CCNC(=O)Nc1nc2cc(-c3cnc(N4CCC(C#N)(C(=O)OCC)CC4)nc3)cc(-c3ccccn3)c2s1 [Compound 174] | > 16 µg/mL | 3.12 µg/mL (≈ 5.61 µM) | < 12.5 µg/mL | 0.25 to 1 µg/mL (≈ 0.449 to 1.8 µM) | > 16 µg/mL | 0.25 to 1 µg/mL (≈ 0.449 to 1.8 µM) | –
CCNC(=O)Nc1nc2cc(-c3cnc(N4CCC(OC)(C(=O)OC)CC4)nc3)cc(-c3ccccn3)c2s1 [Compound 175] | 1 to 16 µg/mL (≈ 1.83 to 29.2 µM) | 25 µg/mL (≈ 45.7 µM) | 12.5 to 400 µg/mL (≈ 22.8 to 730 µM) | ≤ 0.25 µg/mL | 0.25 to 1 µg/mL (≈ 0.457 to 1.83 µM) | ≤ 0.25 µg/mL | –
CCNC(=O)Nc1nc2cc(-c3cnc(N4CCC(C(=O)OCC)(S(C)(=O)=O)CC4)nc3)cc(-c3ccccn3)c2s1 [Compound 176] | > 16 µg/mL | 100 µg/mL (≈ 164 µM) | 12.5 to 400 µg/mL (≈ 20.5 to 656 µM) | > 16 µg/mL | > 16 µg/mL | 0.25 to 1 µg/mL (≈ 0.41 to 1.64 µM) | –
CCNC(=O)Nc1nc2cc(-c3cnc(N4CCC(Cc5ccccc5)(C(=O)OCC)CC4)nc3)cc(-c3ccccn3)c2s1 [Compound 177] | > 16 µg/mL | 12.5 µg/mL (≈ 20.1 µM) | 12.5 to 400 µg/mL (≈ 20.1 to 643 µM) | > 16 µg/mL | > 16 µg/mL | > 16 µg/mL | –
CCNC(=O)Nc1nc2cc(-c3cnc(N4CCC(C)(C(=O)OCC)CC4)nc3)cc(C3CCN(C(C)=O)CC3)c2s1 [Compound 178] | – | – | – | – | – | – | Antibacterial Activity (MIC) H. influenzae (ATCC 49247) [1]: D (“D” activity >16 μg/mL); Max Solubility (physchem; pH 4): 6.25 µg/mL; Solubility (pH 7.4) (physchem; pH 7.4): 3.125 μg/mL; Antibacterial Activity (MIC) E. faecalis (ATCC 29212) [2]: D (“D” activity >16 μg/mL); Antibacterial Activity (MIC) S. aureus (ATCC 29213) ([3]; Gram positive strain): D (“D” activity >16 μg/mL); Antibacterial Activity (MIC) S. pyogenes (ATCC 51339) ([4]; Gram positive strain): C (“C” activity >1.0 μg/mL-16 μg/mL)
CCNC(=O)Nc1nc2cc(-c3cnc(N4CCC(C(=O)OC)(C(F)(F)F)C4)nc3)cc(-c3ccccn3)c2s1 (stereo not drawn) [Compound 180] | > 16 µg/mL | 6.25 µg/mL (≈ 10.9 µM) | < 12.5 µg/mL | 0.25 to 1 µg/mL (≈ 0.437 to 1.75 µM) | 1 to 16 µg/mL (≈ 1.75 to 28 µM) | 0.25 to 1 µg/mL (≈ 0.437 to 1.75 µM) | –
CCNC(=O)Nc1nc2cc(-c3cncc(N4CCC(C)(C(=O)O)CC4)c3)cc(-c3ccccn3)c2s1 [Compound 181] | 1 to 16 µg/mL (≈ 1.94 to 31 µM) | ≥ 800 µg/mL | > 800 µg/mL | ≤ 0.25 µg/mL | 0.25 to 1 µg/mL (≈ 0.484 to 1.94 µM) | ≤ 0.25 µg/mL | solubility at 24 h (physchem; [6]): ≥ 800 µg/mL; solubility at 24 h (physchem; [9]): > 800 µg/mL
CCNC(=O)Nc1nc2cc(-c3ccc(C4=NOC(C)(C(=O)O)C4)nc3)cc(-c3ccccn3)c2s1 (stereo not drawn) [Compound 183] | 1 to 16 µg/mL (≈ 1.99 to 31.8 µM) | 100 µg/mL (≈ 199 µM) | 12.5 to 400 µg/mL (≈ 24.9 to 796 µM) | 0.25 to 1 µg/mL (≈ 0.497 to 1.99 µM) | 1 to 16 µg/mL (≈ 1.99 to 31.8 µM) | ≤ 0.25 µg/mL | –
CCNC(=O)Nc1nc2cc(-c3ccc(C4=NOC(C)(C(=O)OCC)C4)nc3)cc(-c3ccccn3)c2s1 (stereo not drawn) [Compound 184] | 1 to 16 µg/mL (≈ 1.88 to 30.2 µM) | 6.25 µg/mL (≈ 11.8 µM) | < 12.5 µg/mL | ≤ 0.25 µg/mL | ≤ 0.25 µg/mL | ≤ 0.25 µg/mL | –
CCNC(=O)Nc1nc2cc(-c3cnc(N4CCC(C(N)=O)(c5ccccc5)CC4)nc3)cc(-c3ccccn3)c2s1 [Compound 185] | > 16 µg/mL | 6.25 µg/mL (≈ 10.8 µM) | < 12.5 µg/mL | ≤ 0.25 µg/mL | 0.25 to 1 µg/mL (≈ 0.432 to 1.73 µM) | 1 to 16 µg/mL (≈ 1.73 to 27.6 µM) | –
